# Biological target: T1, wild-type K-Ras protein (Mus musculus, UniProt P32883)
# T1 construct: intraperitoneally administered to C57BL/6J wild-type mice; from tissue; host or cells: C57BL/6J wild-type mice: spleen, pancreas, liver, kidneys, colon, lungs, heart
# Experiment: Degradation of wild-type K-Ras protein in each tissue of mouse after administration, Western blot analysis
# Type: in vivo
# Experimental: TUS-007 was dissolved in DMSO, and then dissolved in corn oil so that the concentration of DMSO was 10 vol %, and then intraperitoneally administered to C57BL/6J wild-type mice (8 to 9 weeks old, male) (CLEA Japan, Inc.) in an amount of 40 mg/kg body weight or 80 mg/kg body weight (n=3 to 4). Furthermore, in addition to a group in which TUS-007 was administered, a group in which Ras-SOS had been administered in a dose of 80 mg/kg body weight was prepared. As a control, an injection carrier (corn oil containing 10 vol % DMSO) was used. The mice were kept under an environment of ad libitum access to food and water. The mice were dissected under deep anesthesia by Somnopentyl (Kyoritsu Seiyaku Corporation) 48 hours after administration. Abdominal section was performed, and then the spleen, pancreas, liver, kidneys, colon, lungs, and heart were sequentially extracted and flash frozen in liquid nitrogen. Each tissue frozen in liquid nitrogen was stored in a deep freezer at −80° C.
# The frozen tissues (spleen: 0.02 g, other tissues: 0.04 g) were each triturated, and then 500 μL of TKM tissue lysis buffer (50 mM triethanolamine (pH 7.8), 50 mM KCl, 5 mM MgCl2, 0.25 M sucrose, 1 mM PMSF, Protein Inhibitors Cocktail-EDTA free (Nacalai Tesque, Inc.), 1 mM DTT, and a recombinant RNase inhibitor (0.2 U/μL, Takara Bio) were added, and dissolved by rotation for 15 minutes (1 rpm, 25° C.). Then, the resultant product was subjected to centrifugation (at 13800 rpm×30 minutes, 4° C.), and the supernatants (each tissue extract) were collected. The concentration of the extracted proteins was quantified by a spectrophotometer.
# Each tissue extract collected was subjected to Western blot analysis. An SDS-PAGE gel was prepared using TGX™ FastCast™ Acrylamide Kit, 12% (Bio-Rad). Electrophoresis samples were prepared in a 6×SDS-PAGE sample buffer (62.5 mM Tris-HCl pH 6.8, 2% SDS, 5% 2-mercaptoethanol, 10% glycerol, 0.25% BPB), and placed on a heat block at 95° C. for 5 minutes. Electrophoresis was performed at 160 V for 60 minutes (electrophoresis buffer; 195 mM glycine, 25 mM Tris).
# After electrophoresis, proteins were transferred to a PVDF membrane (Immobion™-P, Millipore) under conditions of 100 V and 1.5 hours using a tank-type blotting device and a transfer buffer (25 mM Tris-HCl, 195 mM glycine, 0.01% SDS, 15% methanol). The membrane was split into two at the position of a 25 kDa marker. The membrane after transfer was shaken and blocked in 5% skim milk/TBS-T (100 mM Tris-HCl, 150 mM NaCl, 0.1% Tween-20, pH 7.6) at room temperature for 30 minutes. After blocking, a primary antibody reaction was performed in 5% skim milk/TBS-T. As the primary antibody, an anti-K-Ras antibody (sc-30, SantaCruz, diluted 500 times) and an anti-GAPDH antibody (sc-32233, SantaCruz, diluted 20000 times) were used. The membrane was shaken at room temperature for 60 minutes (anti-K-Ras antibody) or at 4° C. overnight (anti-GAPDH antibody), and then the membrane was washed with TBS-T for 5 minutes. It is noted that washing was performed four times. After the primary antibody reaction, a secondary antibody reaction was performed in 1% skim milk/TBS-T. The membrane was shaken at room temperature for 30 minutes, and then the membrane was washed with TBS-T for 5 minutes. It is noted that washing was performed four times. Furthermore, the membrane was washed with TBS (100 mM Tris-HCl, 150 mM NaCl, pH 7.6) for 10 minutes. Subsequently, the membrane was treated with a chemiluminescence reagent Immobilon™ Western (Millipore), and then chemiluminescence was detected using a lumino image analyzer LAS-3000 (FUJIFILM Corporation). Detected bands were quantified with an image processing software ImageJ (NIH).
# T1 sequence (P32883 whole entry): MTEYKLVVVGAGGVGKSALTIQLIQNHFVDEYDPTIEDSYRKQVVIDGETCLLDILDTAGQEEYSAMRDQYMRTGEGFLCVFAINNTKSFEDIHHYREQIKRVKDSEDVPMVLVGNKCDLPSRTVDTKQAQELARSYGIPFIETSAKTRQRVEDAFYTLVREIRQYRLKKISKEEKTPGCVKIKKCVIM
smiles,measurement,setting,value
CC[C@@H](C)[C@H](NC(=O)CCCCCCNC(=O)[C@H](CC(C)C)NC(=O)CNC(=O)c1cc(Cl)ccc1Cl)C(=O)Nc1ccc2[nH]c(Cc3c[nH]c4ccccc34)nc2c1 [TUS-007],amount of wild-type K-Ras protein in colon,"intraperitoneal 40 or 80 mg/kg body weight, 48 hours after administration, colon",reduced in a concentration dependent manner
same,amount of wild-type K-Ras protein in heart,"intraperitoneal 40 or 80 mg/kg body weight, 48 hours after administration, heart",not reduced
same,amount of wild-type K-Ras protein in kidneys,"intraperitoneal 40 or 80 mg/kg body weight, 48 hours after administration, kidneys",reduced in a concentration dependent manner
same,amount of wild-type K-Ras protein in liver,"intraperitoneal 40 or 80 mg/kg body weight, 48 hours after administration, liver",not reduced
same,amount of wild-type K-Ras protein in lungs,"intraperitoneal 40 or 80 mg/kg body weight, 48 hours after administration, lungs",not reduced
same,amount of wild-type K-Ras protein in pancreas,"intraperitoneal 40 or 80 mg/kg body weight, 48 hours after administration, pancreas",reduced in a concentration dependent manner
same,amount of wild-type K-Ras protein in spleen,"intraperitoneal 40 or 80 mg/kg body weight, 48 hours after administration, spleen",reduced in a concentration dependent manner
same,transfer property to tissues (molecular kinetics),suggested from K-Ras degradation in tissues,"showed a higher transfer property in the pancreas, colon, kidneys, and spleen as compared with the lungs, liver, and heart"
